Measurements taken from US20170056373A1, “GHRELIN O-ACYLTRANSFERASE INHIBITORS” (SYRACUSE UNIVERSITY, priority 2015, published 2017).
Ends that are not written are not given here. * marks the point of attachment. acrylodan = CN(C)c1ccc2cc(C(=O)CC*)ccc2c1; Dansyl = CN(C)c1cccc2c(S(=O)(=O)*)cccc12

Columns and labels:
hGOAT [1] = molecular target: T1, hGOAT (Homo sapiens, UniProt Q96T53); test: fluorescent ghrelin peptide substrates assayed for activity with hGOAT (HPLC with fluorescence detection); assay type: biochemical; settings: peptide as substrate for octanoylation by hGOAT
T1 construct: His10 (C); made in house; host or cells: Sf9 insect cells (baculovirus), membranes
T1 sequence (Q96T53 1-435): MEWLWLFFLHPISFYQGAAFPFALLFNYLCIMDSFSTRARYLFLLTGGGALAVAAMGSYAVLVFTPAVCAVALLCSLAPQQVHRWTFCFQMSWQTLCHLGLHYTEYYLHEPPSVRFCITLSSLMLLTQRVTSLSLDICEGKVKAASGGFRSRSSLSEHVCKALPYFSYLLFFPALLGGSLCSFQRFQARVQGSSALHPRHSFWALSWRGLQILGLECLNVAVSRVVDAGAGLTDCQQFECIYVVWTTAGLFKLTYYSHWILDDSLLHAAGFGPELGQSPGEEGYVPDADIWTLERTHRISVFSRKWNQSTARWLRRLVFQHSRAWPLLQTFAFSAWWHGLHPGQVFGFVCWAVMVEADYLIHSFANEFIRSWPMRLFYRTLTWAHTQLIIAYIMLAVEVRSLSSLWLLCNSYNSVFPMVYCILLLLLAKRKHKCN
Protocol: With the peptide substrates, the addition of the hydrophobic octanoyl group upon serine acylation at position 3 leads to an increase in retention time in reverse-phase (RP) HPLC. The panel of fluorescent ghrelin peptide substrates was assayed for activity with hGOAT using HPLC coupled with fluorescence detection of the fluorescently labeled peptides. All reactions with hGOAT-His10 membranes were performed in parallel with mock membranes to account for nonspecific peptide modifications.
(§1) An assay for human ghrelin O-acyltransferase activity was performed using hGOAT expressed from insect (Sf9) cells using standard baculoviral methods and a fluorescent 6-mer peptide synthesized by a single step reaction followed by high performance liquid chromatography (HPLC) purification. The assay was performed at room temperature using hGOAT membrane protein, octanoyl-CoA, a fluorescent ghrelin peptide, a buffer, and a detergent. Activity may be measure by detecting the presence of any octanoylation of the ghrelin peptide. For example, the presence of octanoylated ghrelin peptide may be confirmed by HPLC or by using a fluorescent system whose fluorescence will increase as a result of octanoylation of the ghrelin peptide.

mouse isoform of GOAT = molecular target: T2, mouse isoform of GOAT (Mus musculus, UniProt P0C7A3); test: cell-based inhibition of ghrelin octanoylation, acyl ghrelin ELISA in GOAT/preproghrelin transfected HEK293FT cells; settings: stably transfected HEK293FT cells, 24 hours incubation, read-out: cellular IC50, reduction of acyl ghrelin concentrations
T2 construct: expressed in transfected cells; host or cells: HEK293FT, stably transfected with the phPPG-mGOAT plasmid (gift from Dr. Jef Boeke's laboratory)
T2 sequence (P0C7A3 1-435): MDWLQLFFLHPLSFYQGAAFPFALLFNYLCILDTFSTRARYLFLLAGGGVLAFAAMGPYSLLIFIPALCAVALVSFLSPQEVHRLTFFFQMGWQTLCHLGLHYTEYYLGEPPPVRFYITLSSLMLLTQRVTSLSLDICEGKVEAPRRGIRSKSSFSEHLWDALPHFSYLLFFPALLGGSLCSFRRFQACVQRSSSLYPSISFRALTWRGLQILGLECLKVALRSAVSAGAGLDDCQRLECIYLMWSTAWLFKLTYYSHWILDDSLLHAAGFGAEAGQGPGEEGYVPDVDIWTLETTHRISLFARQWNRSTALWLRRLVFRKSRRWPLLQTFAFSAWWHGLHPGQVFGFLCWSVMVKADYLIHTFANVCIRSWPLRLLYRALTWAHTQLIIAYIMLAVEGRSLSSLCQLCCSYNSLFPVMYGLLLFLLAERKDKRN
Protocol: Stably transfected GOAT/Preproghrelin HEK 293FT cells were generated using the phPPG-mGOAT plasmid (a gift from Dr. Jef Boeke's laboratory) containing human preproghrelin (hPPG) and mouse ghrelin O-acyltransferase (mGOAT) connected by an intervening encephalomyocarditis virus internal ribosome entry site (ECMV-IRES) under puromycin selection as previously described. Cells were transfected using Lipofectamine 2000 (Invitrogen) at a 2 μL to 1 μg DNA ratio in 10 cm tissue culture-treated dishes according to manufacturer's protocol. The 293FT-hPPG-mGOAT cells were cultured in DMEM medium (Corning) supplemented with 10% inactivated fetal bovine serum, 1% penicillin/streptomycin, 1 ug/mL puromycin, and 0.01% octanoic acid and routinely passaged 2-3 times per week. A clonal line was chosen through serial dilution into a 96-well plate.
Cell density and number were optimized for detection of acyl ghrelin via ELISA (EMD Millipore Corp). 293FT-hPPG-mGOAT clonal cells were plated in the late afternoon in 24-plates at 2×10^5 cells/well. Cells were incubated overnight at 37° C., 5% CO2 and treated the next morning with inhibitors or vehicle (DMSO) in triplicate. Cells were treated for 24 hours and harvested after medium aspiration using 40 μL/well trypsin-EDTA (0.25%, Corning) containing 5 μM methoxy arachidonyl flourophosphonate (MAFP). […]

hGOAT [2] = molecular target: T1, hGOAT; test: in vitro hGOAT activity assay (inhibition of ghrelin peptide octanoylation, HPLC/fluorescence); assay type: biochemical; settings: for IC50: hGOAT membrane fraction from Sf9 cells, in vitro octanoylation assay
Protocol: as §1
A library of potential inhibitors was screened using the assay of the present invention. More particularly, membrane fractions from Sf9 cells expressing hGOAT were thawed on ice and homogenized by passing through an 18-gauge needle ten times. Membrane fraction containing ˜50-100 μg membrane protein (determined by Bradford assay) was preincubated for 30 minutes at room temperature with 1 μM MAFP, 500 μM octanoyl CoA, 50 mM HEPES (pH=7.0), and 1 μl Diversity Set compound dissolved in DMSO for a final inhibitor concentration of either 10 or 100 μM for primary screening. Reactions were initiated with the addition of 1.5 μM fluorescent peptide substrate, incubated at room temperature in the dark for 3 hours, then stopped with 50 μl 20% acetic acid in isopropanol. The solutions were clarified by protein precipitation with 16.7 μl 20% trichloroacetic acid, followed by centrifugation (1,000×g, 1 m). The resulting supernatant was analyzed by reverse phase HPLC.
Reactions followed the above procedure, and included inhibitor concentrations of 1, 5, 10, 50, or 100 μM, as well as a DMSO-only vehicle control. Compounds determined to act as hGOAT inhibitors are seen in FIGS. 4 through 6.

Compound: 1-Dansyl: fluorescent ghrelin mimic peptide substrate, Dansyl-GSSFLS (SEQ. ID No. 2) (ends and bridges not checked)
- Active with hGOAT? (hGOAT [1]): not modified by hGOAT and No

Compound: CCNC(=O)[C@]12CCC(C)(C)C[C@H]1[C@H]1C(=O)C=C3[C@@]4(C)C=C(C#N)C(=O)C(C)(C)[C@@H]4CC[C@@]3(C)[C@]1(C)CC2 [CDDO-EA]
- IC50 (mouse isoform of GOAT): 0.32 ± 0.15 µM
- IC50 (hGOAT [2]): 8 ± 4 µM

Compound: CC1(C)CC[C@]2(C(=O)n3ccnc3)CC[C@]3(C)[C@H](C(=O)C=C4[C@@]5(C)C=C(C#N)C(=O)C(C)(C)[C@@H]5CC[C@]43C)[C@@H]2C1 [CDDO-Im, 1[2-cyano-3,12-dioxooleana-1,9-dien-28-oyl]imidazole]
- IC50 (hGOAT [2]): 38 ± 6 µM

Compound: COC(=O)[C@]12CCC(C)(C)C[C@H]1[C@H]1C(=O)C=C3[C@@]4(C)C=C(C#N)C(=O)C(C)(C)[C@@H]4CC[C@@]3(C)[C@]1(C)CC2 [CDDO-Me, methyl 2-cyano-3,12-dioxooleana-1,9(11)dien-28-oate]
- IC50 (mouse isoform of GOAT): 0.035 ± 0.01 µM
- inhibitory activity against hGOAT-catalyzed ghrelin octanoylation (in words) (hGOAT [2]; in vitro hGOAT activity assay): exhibits inhibitory activity against hGOAT

Compound: AcDan-2: acrylodan-labeled ghrelin mimic peptide substrate, GCAcDanSFLS (SEQ. ID No. 3) (GC(acrylodan)SFLS; ends and bridges not checked)
- Active with hGOAT? (hGOAT [1]): not modified by hGOAT and No

Compound: AcDan-5: acrylodan-labeled ghrelin mimic peptide substrate, GSSFCAcDanS (SEQ. ID No. 4) (GSSFC(acrylodan)S; ends and bridges not checked)
- Active with hGOAT? (hGOAT [1]): yielded the octanoylated peptide and Yes

Compound: AcDan-6: acrylodan-labeled ghrelin mimic peptide substrate, GSSFLCAcDan (SEQ. ID No. 5) (GSSFLC(acrylodan)-NH2; ends and bridges not checked)
- Active with hGOAT? (hGOAT [1]): yielded the octanoylated peptide and Yes
